B1: soybean trypsin inhibitor (protein, UniProt P01070 25-205, looked up)
Trypsin inhibitor A: DFVLDNEGNPLENGGTYYILSDITAFGGIRAAPTGNERCPLTVVQSRNELDKGIGTIISSPYRIRFIAEGHPLSLKFDSFAVIMLCVGIPTEWSVVEDLPEGPAVKIGENKDAMDGWFRLERVSDDEFNNYKLVFCPQQAEDDKCGDIGISIDHDDGTRRLVVSKNKPLVVQFQKLDKESL

Columns and labels:
[1] = test system: calpains of the cytoplasmic extract; assay: Degradation of p53 proteins by endogenous calpains in cytoplasmic extracts of Daudi or Jurkat cells; type: biochemical, human; settings: in the presence of calcium
Procedure: 2.1. Degradation by the endogenous calpains: mouse and human wild-type p53 proteins, as well as certain mutated forms (cf Example 1) were translated in the reticulocyte lysate and were then incubated in the presence of cytoplasmic extracts of Daudi or Jurkat human lymphoblastoid cells. The cytoplasmic extracts were prepared in the following manner: the cells (available at the ATCC) were cultured in DMEM medium supplemented with 10% foetal calf serum. The cells were then harvested, washed in PBS buffer and then incubated for 5 min in a detergent-free hypotonic lysis buffer (HEPES 20 mM, pH 7.5; KOAc 10 mM; MgOAc 1.5 mM; 2 ml per 5×10^8 cells). The lysis was completed using a Dounce homogenizer and then checked under a microscope. The nuclei were then removed by centrifugation at 2000 g for 5 min, and the supernatants were centrifuged at 10,000 g for 1 hour (Beckman SW60). The cytoplasmic extracts were then aliquoted in an amount of 5 to 12 mg/ml.

[2] = target: T1, bovine m-calpain (Bos taurus, UniProt Q27971); assay: Degradation of p53 proteins by exogenous m-calpain in rabbit reticulocyte lysate; type: biochemical; settings: m-calpain plus calcium, mouse and human wild-type and mutated p53
T1 construct: purchased Sigma
T1 sequence (Q27971 20-700 limits assumed): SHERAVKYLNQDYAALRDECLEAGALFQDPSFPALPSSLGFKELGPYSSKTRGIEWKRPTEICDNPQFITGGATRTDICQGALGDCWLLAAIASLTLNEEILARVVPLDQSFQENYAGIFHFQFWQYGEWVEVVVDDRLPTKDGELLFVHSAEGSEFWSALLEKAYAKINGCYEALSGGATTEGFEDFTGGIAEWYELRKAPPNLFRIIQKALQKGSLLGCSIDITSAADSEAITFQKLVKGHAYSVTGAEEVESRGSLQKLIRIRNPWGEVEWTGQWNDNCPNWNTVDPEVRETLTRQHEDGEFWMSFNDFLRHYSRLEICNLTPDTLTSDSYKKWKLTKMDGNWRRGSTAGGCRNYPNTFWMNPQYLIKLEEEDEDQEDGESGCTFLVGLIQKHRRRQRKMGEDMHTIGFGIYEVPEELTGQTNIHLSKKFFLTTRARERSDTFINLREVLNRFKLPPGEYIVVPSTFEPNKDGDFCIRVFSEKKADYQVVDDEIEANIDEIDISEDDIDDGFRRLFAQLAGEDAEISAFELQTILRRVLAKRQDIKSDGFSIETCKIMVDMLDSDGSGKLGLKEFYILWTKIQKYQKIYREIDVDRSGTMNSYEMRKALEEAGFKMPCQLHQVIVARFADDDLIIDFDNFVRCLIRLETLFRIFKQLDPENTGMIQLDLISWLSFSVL
T1 sequence (P13135 1-263 partner): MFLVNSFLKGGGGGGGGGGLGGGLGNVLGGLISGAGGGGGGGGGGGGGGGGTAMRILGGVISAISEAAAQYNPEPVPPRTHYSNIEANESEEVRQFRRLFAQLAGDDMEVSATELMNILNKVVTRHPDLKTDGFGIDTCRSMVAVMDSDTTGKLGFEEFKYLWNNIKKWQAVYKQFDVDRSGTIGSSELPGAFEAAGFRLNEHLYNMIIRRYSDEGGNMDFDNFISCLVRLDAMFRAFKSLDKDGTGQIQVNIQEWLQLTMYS
From the text: 1.1. […] The proteins thus obtained are resistant to any degradation, even in the presence of a high concentration of calcium (cofactor essential for the calpains). The addition of bovine m-calpain (Sigma) to the reticulocyte lysate in the presence of calcium led to the rapid disappearance of the neosynthesized proteins and the appearance of proteolytic fragments which are resolvable by electrophoresis. The degradation resistance of other proteins such as dihydrofolate reductase or glyceraldehyde-3-phosphate dehydrogenase under the same experimental conditions indicates the substrate specificity of the reaction.
1.2. Use of inhibitors of calpain for modulating the levels of p53 proteins: in the above Example 1.1., it was shown that the addition of m-calpain induced degradation of the p53 proteins. In this example, in addition to m-calpain, various compounds were introduced into the medium in order to test their capacity to inhibit the activity of calpain.

Molecule | effect on calcium-dependent degradation of p53 proteins in cytoplasmic extracts [1] | inhibition of the degradation of the p53 proteins induced by the exogenous calpain [2]
aprotinin | show that the degradation of these proteins is dependent on the calpains | –
O=C(O)CN(CCOCCOCCN(CC(=O)O)CC(=O)O)CC(=O)O [EGTA] | – | capable of inhibiting the degradation of the p53 proteins
CC(=O)N[C@@H](CC(C)C)C(=O)N[C@@H](CC(C)C)C(=O)N[C@H](C=O)CCCNC(=N)N [leupeptin] | show that the degradation of these proteins is dependent on the calpains | –
O=S(=O)(F)Cc1ccccc1 [PMSF] | show that the degradation of these proteins is dependent on the calpains | –
B1 | show that the degradation of these proteins is dependent on the calpains | –

— patent US7837991B2, “Method of cancer treatment by p53 protein control” (Aventis Pharma, S.A., priority 1994, dated 2010)
